The source of these data is patent publication US7189751B2, “Oxa(thia)zolidine compounds, process for preparation thereof and anti-inflammatory agents” (Nippon Soda Co., Ltd., priority 2001, dated 2007).

For the assay, the system named is Mouse Ear Edema Induced by TPA. Put plainly: Mouse ear edema induced by TPA. Type of assay: in vivo. To be noted: topical, 0.3 mg/20 μL/ear × 2; ICR male mouse; 6 hours after TPA. How it is done:
Pharmacological Test Example 2: Mouse Ear Edema Induced by TPA
This test was carried out referring to the method of Carlson, R. P. et al. (Agents and Actions, 17(2): 197–204 (1985).) and the method of Chang, J. (European Journal of Pharmacology, 142: 197–205 (1987).). More specifically, 5 μg/20 μL of TPA (Sigma Chemical Co.), dissolved with ethanol, was topically applied to the anterior and posterior surfaces of the right ear of an ICR-strain male mouse (6–7 weeks old). 6 hours later, the thickness of each ear at the particular part was respectively measured three times using a digimatic micrometer to calculate the mean value. Ear edema was determined by subtracting the mean thickness of the left ear as without treatment from that of the right ear as TPA-applied. Topical application activity was evaluated by applying an acetone solution of the compound of the present invention or 0.1% Tween 80/acetone solution thereof similarly to the anterior and posterior surfaces of the right ear 30 min. before and 15 min. after the TPA-application. […] Oral administration activity was evaluated by administrating 0.2% Tween 80 suspension of the compound of the present invention forcibly and perorally to the mouse an hour prior to the TPA-application. As the positive control, 100 mg/kg of Hydrocortisone (Sigma Chemical Co., H 4001) suspension was applied to the mouse similarly as for the compound of the present invention.

SMILES strings stand for the structures.

`CCOC(=O)C(=C1N[C@@H](C)[C@H](c2ccc(Cl)cc2)S1)[N+](=O)[O-]` (relative stereo) [Compound 2-29, Trans-5-(4-chlorophenyl)-4-methyl-2-(1-ethoxycarbonyl-1-nitromethylene)-thiazolidine]: the “Ear Edema Inhibition (%)” value is listed as 78.6%.
